# Data: PMC5658359, “A potent small-molecule inhibitor of the DCN1-UBC12 interaction that selectively blocks cullin 3 neddylation” (Nature Communications, 2017)
# “Also recorded” adds a separate entry of the source.
# Experiments:
# NEDD8 E1 (APP-BP1/Uba3) = biological target: T1, NEDD8 E1 (APP-BP1/Uba3) (Homo sapiens, UniProt Q8TBC4); assay: In vitro UBC12~NEDD8 thioester forming assay; type: biochemical; conditions: DI-591 at concentrations up to 100 µM
# T1 construct: purchased Boston Biochem
# T1 sequence (Q8TBC4 1-463): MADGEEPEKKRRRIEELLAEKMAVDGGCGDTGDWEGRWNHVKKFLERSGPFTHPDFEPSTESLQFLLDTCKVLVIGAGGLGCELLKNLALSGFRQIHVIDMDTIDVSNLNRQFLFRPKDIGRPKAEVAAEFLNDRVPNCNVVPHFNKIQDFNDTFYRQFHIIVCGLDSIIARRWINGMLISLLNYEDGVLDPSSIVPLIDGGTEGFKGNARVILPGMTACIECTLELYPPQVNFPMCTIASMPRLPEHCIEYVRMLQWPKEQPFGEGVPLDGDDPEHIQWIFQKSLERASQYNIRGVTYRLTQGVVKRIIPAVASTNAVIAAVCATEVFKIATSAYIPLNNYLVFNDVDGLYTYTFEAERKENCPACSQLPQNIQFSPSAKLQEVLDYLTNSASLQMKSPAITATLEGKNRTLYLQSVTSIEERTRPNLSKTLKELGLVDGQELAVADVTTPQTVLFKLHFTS
# T1 sequence (Q13564 1-534 partner): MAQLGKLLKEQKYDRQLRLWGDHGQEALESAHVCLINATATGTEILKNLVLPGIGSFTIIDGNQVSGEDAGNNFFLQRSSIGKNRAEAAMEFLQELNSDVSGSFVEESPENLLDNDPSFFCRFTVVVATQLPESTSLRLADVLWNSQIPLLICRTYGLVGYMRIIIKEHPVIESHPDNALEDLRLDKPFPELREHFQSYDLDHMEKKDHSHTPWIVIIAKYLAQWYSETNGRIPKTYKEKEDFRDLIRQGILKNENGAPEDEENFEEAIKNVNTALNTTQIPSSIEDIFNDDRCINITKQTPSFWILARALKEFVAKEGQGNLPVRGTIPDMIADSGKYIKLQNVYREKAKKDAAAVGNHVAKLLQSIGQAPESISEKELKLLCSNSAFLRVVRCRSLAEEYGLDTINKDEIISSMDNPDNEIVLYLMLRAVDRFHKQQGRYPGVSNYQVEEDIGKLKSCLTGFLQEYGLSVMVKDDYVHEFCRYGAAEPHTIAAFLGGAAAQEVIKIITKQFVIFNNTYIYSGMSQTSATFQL
# Method: NEDD8, NEDD8 E1 (APP-BP1/Uba3) and UBC12 proteins were purchased from Boston Biochem. NEDD8 (10 μM), NEDD8 E1 (25 nM), and UBC12 (2 μM) were incubated in Tris-HCl (pH 7.4, 50 mM), MgCl2 (5 mM), DTT (0.5 mM) and BSA (0.1 mg/ml), with a tested compound at 25 °C for 10 min. Reactions were initiated by addition of 2 mM ATP (or distilled H2O) and ran for 5 min at 25 °C. 1 M DTT (or distilled H2O) was added to the reaction mixtures which were then kept on ice for 1 min followed by addition of SDS loading buffer (without DTT). The products were separated by SDS–PAGE, visualized by Coomassie stain and quantified by ImageLab (Bio-Rad).
# 1 Supplementa ry Figure 3:
# 3 Supplementary Figure 3. In vitro U BC12~N EDD8 thio ester forming assay.N EDD8,
# 4 NEDD8 E1 (APP -BP 1/Uba3) and UBC12 were purchased from Boston Biochem. 10μ M
# 5 NEDD8, 25nM N EDD8 E1,and 2μ M UBC12 were incubated in 50mM Tris-HCl (pH 7.4), 5mM
# 6 M gC l 2, 0.5mM DTT, and 0.1mg/ml BSA, with indicated compounds at 25℃ for 10min.
# 7 Reactions were initiated by addition o f 2mM ATP (or dH2O) and w ere run for 5min at 25℃ .
# 8 Reaction mixtures were t hen added with 1M DTT (or dH 2O) and kept on ice for 1min followed
# 9 by addition of SDS Loading buffer (without DTT). The products were s eparated b y SDS-PAGE,
# 10 visualized by Coomassie stain and quantified using an ImageLab imager ( Bio-Rad). […]
# neddylation of cullin 3 = assay: Western blotting of neddylated and un-neddylated cullin 3 in cells; type: cell-based; conditions: THLE2 liver cells, up to 24 h, MLN4924 0.3 µM
# Text: (§1) Treated cells were lysed by RIPA buffer supplemented with protease and phosphatase inhibitors. The expression level of indicated proteins was examined by immunoblotting analysis. GAPDH was used as the loading control.
# KYSE70 = assay: Cell viability, WST assay, KYSE70; type: cell-based; conditions: Homo sapiens, KYSE-70, 96 h; KYSE70, t = 4 d
# Method: (§2) Supplementary Figure 8: 1
# (§3) […] in a panel of 6 cell lines. (a) The indicated cell lines were treated with MLN4924, 4
# (§4) Cell viability was determined with a WST assay. (b) The 5
# (§5) was determined with a WST assay. 7
# [1] = test system: neddylation of cullin 1 and other cullins; assay: Western blotting of neddylated and un-neddylated cullin 1 and other cullins in cells; type: cell-based
# Text: as §1
# p21, Bim, CDT1 = assay: Western blotting of cullin 1 and 4A CRL substrates in cells; type: cell-based; conditions: western blot, 24 h
# Text: as §1
# KYSE140 = assay: Cell viability, WST assay, KYSE140; type: cell-based; conditions: Homo sapiens, KYSE-140, 96 h; KYSE140, t = 4 d
# Method: as §2, §3, §4, §5
# [2] = test system: THLE2 cells and five additional cancer cell lines; assay: Cell viability, WST assay, panel of 6 cell lines; type: cell-based; conditions: Homo sapiens, THLE-2; 6 different cell lines; read-out: IC50, inhibition of cell viability
# THLE2 = assay: Cell viability, WST assay, THLE2; type: cell-based; conditions: Homo sapiens, THLE-2, 96 h; THLE2, t = 4 d
# Method: as §2, §3, §4, §5
# NRF2 = assay: Western blotting of NRF2 protein in cells; type: cell-based; conditions: western blot, 24 h
# Text: as §1
# DCN5 = biological target: T2, DCN5 (Homo sapiens, UniProt Q9BTE7); assay: Biochemical assays, binding of 47 to recombinant DCN5 (method not specified); conditions: concentrations up to 10 µM
# T2 construct: DCN2 (residues 62–259), DCN3 (residues 86–304), DCN4 (residues 102–292) and DCN5 (residues 47–237); His6-TEV (N, cleaved yes); made in house; host or cells: Rosetta2 cells (E. coli)
# T2 sequence (Q9BTE7 47-237): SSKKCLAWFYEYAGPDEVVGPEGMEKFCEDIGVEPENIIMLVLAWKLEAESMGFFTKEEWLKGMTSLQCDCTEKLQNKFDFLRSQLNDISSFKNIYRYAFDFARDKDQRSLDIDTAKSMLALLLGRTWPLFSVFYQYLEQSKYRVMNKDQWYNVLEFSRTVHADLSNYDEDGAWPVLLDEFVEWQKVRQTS
# [3] = test system: cellular DCN1 and DCN2 proteins; assay: Biotinylated protein pull-down assay, KYSE70 cell lysates; type: binding
# Method: (§6) Complexes formed between the biotinylated DI inhibitor and its targeted proteins were recovered by incubation with Streptavidin-agarose beads (Thermo Scientific Pierce, Waltham, Massachusetts). DCN1 and DCN2 proteins associated with beads were eluted by heating and detected by immunoblotting.
# DCN3 = biological target: T3, DCN3 (Homo sapiens, UniProt Q8IWE4); assay: Biochemical assays, binding of 47 to recombinant DCN3 (method not specified); conditions: concentrations up to 10 µM
# T3 construct: DCN2 (residues 62–259), DCN3 (residues 86–304), DCN4 (residues 102–292) and DCN5 (residues 47–237); His6-TEV (N, cleaved yes); made in house; host or cells: Rosetta2 cells (E. coli)
# T3 sequence (Q8IWE4 86-304): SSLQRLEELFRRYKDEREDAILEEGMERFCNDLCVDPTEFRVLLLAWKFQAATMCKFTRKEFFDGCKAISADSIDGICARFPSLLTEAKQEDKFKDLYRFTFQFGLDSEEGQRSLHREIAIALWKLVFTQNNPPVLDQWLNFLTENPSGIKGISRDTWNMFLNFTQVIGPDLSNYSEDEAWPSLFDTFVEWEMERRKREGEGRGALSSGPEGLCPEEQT
# DCN4 = biological target: T4, DCN4 (Homo sapiens, UniProt Q92564); assay: Biochemical assays, binding of 47 to recombinant DCN4 (method not specified); conditions: concentrations up to 10 µM
# T4 construct: DCN2 (residues 62–259), DCN3 (residues 86–304), DCN4 (residues 102–292) and DCN5 (residues 47–237); His6-TEV (N, cleaved yes); made in house; host or cells: Rosetta2 cells (E. coli)
# T4 sequence (Q92564 102-292): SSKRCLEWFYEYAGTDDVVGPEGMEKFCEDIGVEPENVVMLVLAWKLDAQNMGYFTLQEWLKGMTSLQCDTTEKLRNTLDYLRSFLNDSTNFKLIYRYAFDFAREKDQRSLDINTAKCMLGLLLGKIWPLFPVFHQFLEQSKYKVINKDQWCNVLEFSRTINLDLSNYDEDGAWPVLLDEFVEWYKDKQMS
# DCN2 = biological target: T5, DCN2 (Homo sapiens, UniProt Q6PH85); assay: Competitive FP binding assay with probe 46, DCN2
# T5 construct: DCN2 (residues 62–259), DCN3 (residues 86–304), DCN4 (residues 102–292) and DCN5 (residues 47–237); His6-TEV (N, cleaved yes); made in house; host or cells: Rosetta2 cells (E. coli)
# T5 sequence (Q6PH85 62-259): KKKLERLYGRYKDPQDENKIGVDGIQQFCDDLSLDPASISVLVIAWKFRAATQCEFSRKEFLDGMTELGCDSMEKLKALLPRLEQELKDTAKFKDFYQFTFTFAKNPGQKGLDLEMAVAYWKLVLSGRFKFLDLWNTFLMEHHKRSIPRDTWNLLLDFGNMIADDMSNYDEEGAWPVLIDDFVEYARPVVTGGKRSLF
# Method: The FP competitive binding experiments were performed to determine the binding affinities of all synthesized DCN1 inhibitors. […] Serial dilutions of DCN1 or DCN2 protein were mixed with the probe (46) to a final volume of 200 μl in the assay buffer (100 mM phosphate buffer, pH = 6.5, with 0.02% Tween-20 and 2% DMSO). The final probe concentration was 5 nM in both DCN1 and DCN2 assays. Plates were incubated at room temperature for 30 min with gentle shaking for equilibrium.
# The IC50 and Ki values of compounds were determined in competitive binding experiments. Mixtures of compounds in DMSO (4 μl) and of pre-incubated protein/probe complex solution (196 μl) in the assay buffer were added into assay plates that were incubated at room temperature for 30 min with gentle shaking. Final concentrations of DCN1 protein and fluorescent probe (46) were 50 and 5 nM, respectively. […] FP values were measured as described above. IC50 values were determined by nonlinear regression fitting of the competition curves using the dose response inhibition equation (four parameters, variable slopes) included in the Prism/GraphPad software. K i values were calculated using the methods described earlier.
# DCN1 = DCN1 (Homo sapiens, UniProt Q96GG9); assay: Biotinylated protein pull-down assay, KYSE140 cell lysates; type: binding; design: endogenous in cells; host or cells: KYSE70; KYSE140
# Sequence of DCN1 (Q96GG9 whole entry): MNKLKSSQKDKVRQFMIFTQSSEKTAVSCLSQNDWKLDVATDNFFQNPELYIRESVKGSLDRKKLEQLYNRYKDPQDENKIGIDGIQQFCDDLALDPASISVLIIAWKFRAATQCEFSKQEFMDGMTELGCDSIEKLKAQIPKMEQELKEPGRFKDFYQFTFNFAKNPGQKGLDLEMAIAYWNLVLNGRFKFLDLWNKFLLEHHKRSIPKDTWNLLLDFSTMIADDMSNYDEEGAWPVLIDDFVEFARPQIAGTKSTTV
# Method: as §6
# GAPDH was used as a loading control. […]
"inhibition of UBC12 neddylation (E1 activity), in words (NEDD8 E1 (APP-BP1/Uba3))",IC50 [2],SMILES,"effect on neddylation of cullin 3, time course (in words) (neddylation of cullin 3)",EC50 (KYSE70),"effect on neddylation of cullin 1, time course (in words) ([1]; THLE2 liver cells, up to 24 h, DI-591 10 µM, MLN4924 0.3 µM)","concentrations that effectively suppress neddylation of all cullins examined ([1]; all cullins examined, panel of six cell lines, 24 h)","protein levels of p21, Bim and CDT1 (in words) (p21, Bim, CDT1)",EC50 (KYSE140),EC50 (THLE2),NRF2 protein level (in words) (NRF2),binding to recombinant DCN5 (in words) (DCN5),pull-down of cellular DCN1 and DCN2 proteins (in words) [3],binding to recombinant DCN3 (in words) (DCN3),binding to recombinant DCN4 (in words) (DCN4),Ki (DCN2),pull-down of DCN1 protein (in words) (DCN1)
effectively inhibits,50 to 350 nM,NS(=O)(=O)OC[C@@H]1C[C@@H](n2ccc3c(N[C@H]4CCc5ccccc54)ncnc32)C[C@@H]1O [MLN4924],effective,356 nM,effective,10 to 300 nM,induces accumulation,65.4 nM,53.4 nM,induces accumulation; also recorded: much stronger upregulation,,,,,,
,,CCC(=O)NC(Cc1nc2ccc(C(C)C)cc2s1)C(=O)NC(CNC(=O)C1CCN(CCOCCOCCOCCNC(=O)CCCCC2SCC3NC(=O)NC32)CC1)C1CCCCC1 (stereo not shown) [compound 47],,,,,,,,,no appreciable binding,efficiently pulls down,no appreciable binding,no appreciable binding,3.9 nM,pulls down DCN1 protein
